The record followed here is US20250263408A1 (Uniquest Pty Ltd, priority 2022, published 2025).

The structures appear in SMILES notation. pEC50, pIC50: −log10 of the molar value.

One series addresses T1, Syk (Homo sapiens, UniProt P43405).
T1 construct: purchased Promega
As to the kind of experiment: Syk Biochemical Assay (ADP-Glo luminescence). The note with it: ATP 40 μM final, 60 minutes, read-out: SYK Biochem IC50. (ADP-Glo turns the ADP formed in a reaction into a luminescent signal.)

Another series has as its target T2, Ba/F3-Syk cells (Homo sapiens, UniProt P43405).
T2 construct: fused on or other part: Possible but unprinted fusion partner: TEL (ETV6), the usual partner for Ba/F3 lines transformed by Syk; Nothing on a partner is printed
Description: Ba/F3 Proliferation Assay, Ba/F3-Syk cells (Resazurin). Format: cell-based. To be noted: 48-hour incubation. (Resazurin is reduced to fluorescent resorufin, in cell work by metabolically active cells.)

Series [1] concerns Ba/F3-WT (wild type) cells. Description: Ba/F3 Proliferation Assay, Ba/F3-WT (wild type) cells with mIL-3 (Resazurin). The class given is cell-based. To be noted: Mus musculus, BaF3, 48 h, Ba/F3-WT cells +mIL-3, 48-hour incubation.
Series [2] in a line: Brain Penetration Assays: Mouse Pharmacokinetics (plasma and brain levels after oral dose). Format: in vivo. To be noted: male, CD-1, mouse, mice, 1 hour post oral dose of 10 mg/kg; for concentration at 1 h: brain (free, unbound); for Kp at 1 h: brain / plasma (unbound), read-out: Kpu,u (ratio of unbound brain levels to unbound plasma levels). The method, then: Male CD-1 mice (6-8 weeks of age, 3 animals per timepoint) were dosed via oral gavage (10 mL/kg) with compound (10 mg/kg, 0.5% methylcellulose in water). Blood samples were taken either non-terminal via saphenous vein or terminal via cardiac puncture and stored in 1.5 mL Eppendorf tubes containing 0.010 mL of 10% K2EDTA, mixed gently and placed in ice before centrifugation. Blood was centrifuged at 10,000 r.p.m. for 2 minutes, plasma harvested and stored at −80° C. Following blood collection at the terminal time points, animals were sacrificed with C02 and brains quickly removed, rinsed with cold saline (0.9% NaCl), surface vasculature ruptured, blotted with dry gauze or tissue and weighed. The whole brain was homogenized in 1.0 mL ice cold phosphate-buffered saline, pH 7.4 and the homogenates stored at −80° C. Compound concentrations were quantified in plasma and brain tissue by LC-MS/MS using a partially validated bioanalytical method.
The Rapid Equilibrium Dialysis (RED) method was employed with plasma (200 μL, BioIVT, USA) in phosphate buffered saline (PBS, 350 μL) incubated with compound (1 μM) at 37° C. for 5 hours shaking at 450 r.p.m. Acetonitrile (3 volumes) was added and the sample centrifuged for 5 minutes and 1050 r.p.m. then for 15 minutes at 4000 r.p.m. Compound concentrations were quantified via LC-MS/MS from supernatant and free drug was calculated.
The RED method was employed with mouse brain homogenate (10% w/v prepared in-house)) incubated with compound (1 μM) at 37° C. for 5 hours shaking at 450 r.p.m. Acetonitrile (3 volumes) was added and the sample centrifuged for 5 minutes and 1050 r.p.m. then for 14 minutes at 4000 r.p.m. Compound concentrations were quantified via LC-MS/MS from supernatant and free drug was calculated.

A further series concerns MDR1 (Pgp). As to the kind of experiment: Permeability Assay, bi-directional flux in MDCKII-MDR1 cells. The class given is in vitro ADME, canine. The note with it: dog; for Papp at 2 h, 10 PM: MDCK-MDR1, 2 hours at 37° C., concentration printed as 10 PM; for efflux ratio at 2 h, 10 PM: MDCK-MDR1, ratio >2 indicates the compound is effluxed, read-out: efflux ratio (PappB-A/PappA-B). On the procedure:
The assay was performed using Charles River/Agilux default assay conditions and default acetonitrile extraction and bioanalytical conditions. The assay was performed using MDCKII-MDR1 (Pgp) cells (canine MDCK stably transfected with MDR1). Bi-directional (A-B and B-A) flux measurements were carried out in triplicate aliquots from duplicate wells. The compounds were incubated for 2 hours at 37° C. at a concentration of 10 PM. The efflux ratio is the ratio of PappB-A/PappA-B, and a ratio >2 indicates the compound is effluxed.

With `Cn1ccc(-c2cc3ncccc3c(OC[C@@H]3CNCC(C)(C)O3)n2)c1` [Compound 2.51, 5-{[(2S)-6,6-dimethylmorpholin-2-yl]methoxy}-7-(1-methyl-1H-pyrrol-3-yl)-1,6-naphthyridine], on Syk, the negative-log IC50 (pIC50) – broadly, the IC50 on a negative log10 scale, so that one unit is a factor of ten – is 8.09. Moreover, the negative logarithm of the EC50 (pEC50) (as a rule, the negative decadic logarithm of the EC50, by convention in mol/L) is 7.34 at Ba/F3-Syk cells and 5.22 in series [1]. This compound had a concentration at 1 h in series [2] of no more than 25 nM. Also, in series [2], the Kp at 1 h was greater than 0.3.

Consider `CCn1ccc(-c2cc3ncccc3c(OC[C@@H]3CNCCCO3)n2)c1` [Compound 6.26, 7-(1-ethyl-1H-pyrrol-3-yl)-5-{[(2S)-1,4-oxazepan-2-yl]methoxy}-1,6-naphthyridine], for which, at Syk, the pIC50 was 7.49. Moreover, the pEC50 on Ba/F3-Syk cells was 7.67. This compound also showed a pEC50 in series [1] of less than 5.00. In addition, in series [2], the concentration at 1 h is no more than 10 nM and the Kp at 1 h fell in the range of 0.1 to 0.2.

In the case of `Cn1ccc(-c2cc(OC[C@@H]3CNCCO3)c3cccnc3c2)c1` [Compound 3.1, 7-(1-methyl-1H-pyrrol-3-yl)-5{-[(2S)-morpholin-2-yl]methoxy}quinoline], the negative-log IC50 (pIC50) at Syk was 7.32. Moreover, in the series with MDR1 (Pgp), the Papp – broadly, a coefficient for how fast a substance crosses the barrier – at 2 h, 10 PM was in the range of 15 to 20 ×10⁻⁶ cm/s and the efflux ratio at 2 h, 10 PM was no more than 1. At Ba/F3-Syk cells, this compound gave a pEC50 of 7.11. Also, the pEC50 in series [1] is 5.58. Also, the Kp at 1 h in series [2] was 0.1 to 0.2.

As for `CC1(C)CNC[C@@H](COc2nc(-c3cnn(C(C)(C)C)c3)cc3ncccc23)O1` [Compound 2.42, 7-(1-tert-butyl-1-pyrazol-4-yl)-5-{[(2S)-6,6-dimethylmorpholin-2-yl]methoxy}-1,6-naphthyridine], the negative-log IC50 (pIC50) on Syk is 7.91. In the series with MDR1 (Pgp), the apparent permeability (Papp) at 2 h, 10 PM is greater than 20 ×10⁻⁶ cm/s and the efflux ratio at 2 h, 10 PM is no more than 1. This compound also gave a pEC50 at Ba/F3-Syk cells of 7.90. In addition, the negative logarithm of the EC50 (pEC50) in series [1] was 5.63. For the same compound, in series [2], the concentration at 1 h was greater than 25 nM and the Kp at 1 h lay in the range of 0.1 to 0.2.

For `CC(C)n1cc(-c2cc3ncccc3c(O[C@H](C)[C@@H]3CNCCO3)n2)cn1` [Compound 2.66, 5-[(1R)-1-[(2S)-morpholin-2-yl]ethoxy]-7-[1-(propan-2-yl)-1H-pyrazol-4-yl]-1,6-naphthyridine], the figures for the pEC50 (on Ba/F3-Syk cells; in series [1]) were 7.84 and 5.99, respectively. In addition, in series [2], the concentration at 1 h is no more than 25 nM. The Kp at 1 h in series [2] lay in the range of 0.05 to 0.1.

As for `C[C@@H](Oc1nc(-c2cnn(C(C)(C)C)c2)cc2ncccc12)[C@@H]1CNCCO1` [Compound 2.67, 7-(1-tert-butyl-1H-pyrazol-4-yl)-5-[(1R)-1-[(2S)-morpholin-2-yl]ethoxy]-1,6-naphthyridine], the negative logarithm of the IC50 (pIC50) at Syk was 7.53. Moreover, the negative logarithm of the EC50 (pEC50) at Ba/F3-Syk cells is 7.73. Further, the pEC50 in series [1] is 5.73. Besides, in series [2], the concentration at 1 h is no more than 25 nM and the Kp at 1 h was 0.1 to 0.2.

Regarding `Cn1cc(-c2cc3ncccc3c(OC[C@@H]3CNCC4(CCC4)O3)n2)cn1` [Compound 2.55, 7-(1-methyl-1H-pyrazol-4-yl)-5-{[(6S)-5-oxa-8-azaspiro[3.5]nonan-6-yl]methoxy}-1,6-naphthyridine], the pIC50 on Syk is 7.53. Also, the negative logarithm of the EC50 (pEC50) is 7.36 on Ba/F3-Syk cells and 5.49 in series [1]. Also, the concentration at 1 h in series [2] was greater than 25 nM. Besides, in series [2], the Kp at 1 h lay within 0.05 to 0.1.

Take `C[C@@H](Oc1nc(-c2ccn(C)c2)cc2ncccc12)[C@@H]1CNCCO1` [Compound 2.44, 7-(1-methyl-1H-pyrrol-3-yl)-5-[(1R)-1-[(2S)-morpholin-2-yl]ethoxy]-1,6-naphthyridine]: the pIC50 on Syk is 7.51. The negative logarithm of the EC50 (pEC50) at Ba/F3-Syk cells was 7.27; in series [1], 5.68. In addition, the concentration at 1 h in series [2] was no more than 10 nM. In series [2], the Kp at 1 h was greater than 0.3.

Turning to `Cn1ccc(-c2cc(OC[C@@H]3CNCC(C)(C)O3)c3cccnc3c2)c1` [Compound 3.10, 5-{[(2S)-6,6-dimethylmorpholin-2-yl]methoxy}-7-(1-methyl-1H-pyrrol-3-yl)quinoline], the pIC50 on Syk is 7.46. In addition, the values for the pEC50 (on Ba/F3-Syk cells; in series [1]) were 7.27 and 5.34, respectively. For the same compound, the concentration at 1 h in series [2] is greater than 25 nM. Besides, the Kp at 1 h in series [2] was 0.2 to 0.3.

Consider `CC1(C)CNC[C@@H](COc2cc(-c3ccn(C4COC4)c3)cc3ncccc23)O1` [Compound 7.11, 5-{[(2S)-6,6-dimethylmorpholin-2-yl]methoxy}-7-[1-(oxetan-3-yl)-1H-pyrrol-3-yl]quinoline], for which the pIC50 on Syk was 8.01. This compound also showed a negative-log EC50 (pEC50) on Ba/F3-Syk cells of 7.84. Also, the negative-log EC50 (pEC50) in series [1] was 5.77. Further, in series [2], the concentration at 1 h was no more than 10 nM and the Kp at 1 h was in the range of 0.2 to 0.3.

Take `CC(C)n1cc(-c2cc(OC[C@@H]3CNCC(C)(C)O3)c3cccnc3c2)cn1` [Compound 3.6, 5-{[(2S)-6,6-dimethylmorpholin-2-yl]methoxy}-7-[1-(propan-2-yl)-1H-pyrazol-4-yl]quinoline]: the pIC50 on Syk is 7.97. Besides, in the series on MDR1 (Pgp), the apparent permeability (Papp) at 2 h, 10 PM lay within 15 to 20 ×10⁻⁶ cm/s and the efflux ratio at 2 h, 10 PM lay in the range of 1 to 2. Also, the pEC50 at Ba/F3-Syk cells is 7.63. The compound further gave a pEC50 in series [1] of 5.67. Further, in series [2], the concentration at 1 h was no more than 25 nM and the Kp at 1 h fell in the range of 0.05 to 0.1.

In the case of `CCn1ccc(-c2cc3ncccc3c(OC[C@@H]3CNCC(C)(C)O3)n2)c1` [Compound 6.19, 5-{[(2S)-6,6-dimethylmorpholin-2-yl]methoxy}-7-(1-ethyl-1H-pyrrol-3-yl)-1,6-naphthyridine], at Syk, the pIC50 was 7.92. Moreover, the negative-log EC50 (pEC50) at Ba/F3-Syk cells is 7.67. Moreover, the pEC50 in series [1] is 5.30. Also, in series [2], the concentration at 1 h is greater than 25 nM and the Kp at 1 h was in the range of 0.1 to 0.2.

As to `Cn1ccc(-c2cc3ncccc3c(OC[C@@H]3CNCCO3)n2)c1` [Compound 2.20, 7-(1-methyl-1H-pyrrol-3-yl)-5-{[(2S)-morpholin-2-yl]methoxy}-1,6-naphthyridine], at Syk, the pIC50 is 7.42. Also, in the series on MDR1 (Pgp), the apparent permeability coefficient (Papp) at 2 h, 10 PM was greater than 20 ×10⁻⁶ cm/s and the efflux ratio at 2 h, 10 PM was no more than 1. The negative-log EC50 (pEC50) at Ba/F3-Syk cells was 7.06. The compound further gave a pEC50 in series [1] of 5.38. Moreover, in series [2], the concentration at 1 h is greater than 25 nM and the Kp at 1 h lay in the range of 0.2 to 0.3.

Turning to `CC(C)n1ccc(-c2cc3ncccc3c(OC[C@@H]3CNCCO3)n2)c1` [Compound 6.2, 5-{[(2S)-morpholin-2-yl]methoxy}-7-[1-(propan-2-yl)-1H-pyrrol-3-yl]-1,6-naphthyridine], the pIC50 at Syk was 7.80. In the series with MDR1 (Pgp), this compound displayed an apparent permeability (Papp) at 2 h, 10 PM greater than 20 ×10⁻⁶ cm/s. The efflux ratio at 2 h, 10 PM in the series with MDR1 (Pgp) was in the range of 1 to 2. Also, the results for the pEC50 (on Ba/F3-Syk cells; in series [1]) were 7.45 and 5.59, respectively. Besides, the Kp at 1 h in series [2] lay within 0.1 to 0.2.

In the case of `CC(C)n1ccc(-c2cc3ncccc3c(O[C@H](C)[C@@H]3CNCCO3)n2)c1` [Compound 6.28, 5-[(1R)-1-[(2S)-morpholin-2-yl]ethoxy]-7-[1-(propan-2-yl)-1H-pyrrol-3-yl]-1,6-naphthyridine], at Syk, the pIC50 was 7.38. The compound further showed a pEC50 at Ba/F3-Syk cells of 7.82. Moreover, the negative logarithm of the EC50 (pEC50) in series [1] was 5.57. In addition, in series [2], the concentration at 1 h is no more than 10 nM and the Kp at 1 h lay in the range of 0.2 to 0.3.

In the case of `CC(C)n1ccc(-c2cc3ncccc3c(OC[C@@H]3CNCC(C)(C)O3)n2)c1` [Compound 6.9, 5-{[(2S)-6,6-dimethylmorpholin-2-yl]methoxy}-7-[1-(propan-2-yl)-1H-pyrrol-3-yl]-1,6-naphthyridine], the pIC50 at Syk was 7.85. In the series with MDR1 (Pgp), the Papp at 2 h, 10 PM lay in the range of 15 to 20 ×10⁻⁶ cm/s and the efflux ratio at 2 h, 10 PM is no more than 1. At Ba/F3-Syk cells, the pEC50 was 7.94. In series [1], the pEC50 was 5.48. Moreover, the Kp at 1 h in series [2] lay in the range of 0.1 to 0.2.
